Data: ChEMBL document CHEMBL4834498, “Positive allosteric modulators (PAMs) of the group II metabotropic glutamate receptors: Design, synthesis, and evaluation as ex-vivo tool compounds” (Bioorg Med Chem Lett, 2021)
Active and inactive are the calls of the source. The calls are words filed in the database; no cut-off is given here.

Columns and labels:
[1] = target: Metabotropic glutamate receptor 3 (Rattus norvegicus) (UniProt P31422); assay: Positive allosteric modulator activity at rat mGlu3 receptor transfected in GIRK channel overexpressing cells assessed as potentiation of glutamate-induced response by thallium mobilization assay relative to glutamate; design: concentration or dose not given beside the values
[2] = target: Metabotropic glutamate receptor 3 (Rattus norvegicus, UniProt P31422); assay: Positive allosteric modulator activity at rat mGlu3 receptor transfected in GIRK channel overexpressing cells assessed as potentiation of glutamate-induced response by thallium mobilization assay
[3] = target: Metabotropic glutamate receptor 2 (Rattus norvegicus) (UniProt P31421); assay: Positive allosteric modulator activity at rat mGlu2 receptor transfected in GIRK channel overexpressing cells assessed as potentiation of glutamate -induced response by thallium mobilization assay relative to glutamate; design: concentration or dose not given beside the values
[4] = target: Metabotropic glutamate receptor 2 (Rattus norvegicus, UniProt P31421); assay: Positive allosteric modulator activity at rat mGlu2 receptor transfected in GIRK channel overexpressing cells assessed as potentiation of glutamate-induced response by thallium mobilization assay
[5] = target: Metabotropic glutamate receptor 3 (Mus musculus) (UniProt Q9QYS2); assay: Positive allosteric modulator activity at mGlu3 receptor in CaMK2-Cre::GCaMP6s transgenic mouse PFC pyramidal cells assessed as potentiation of LY379268-induced Ca2+ mobilization at 10 uM in presence of mGlu2 negative allosteric modulator, VU6001966 by calcium imagining analysis; type: functional; details: filed as positive allosteric modulator
[6] = filed as positive allosteric modulator

Sequence of Metabotropic glutamate receptor 3 (P31422 whole entry): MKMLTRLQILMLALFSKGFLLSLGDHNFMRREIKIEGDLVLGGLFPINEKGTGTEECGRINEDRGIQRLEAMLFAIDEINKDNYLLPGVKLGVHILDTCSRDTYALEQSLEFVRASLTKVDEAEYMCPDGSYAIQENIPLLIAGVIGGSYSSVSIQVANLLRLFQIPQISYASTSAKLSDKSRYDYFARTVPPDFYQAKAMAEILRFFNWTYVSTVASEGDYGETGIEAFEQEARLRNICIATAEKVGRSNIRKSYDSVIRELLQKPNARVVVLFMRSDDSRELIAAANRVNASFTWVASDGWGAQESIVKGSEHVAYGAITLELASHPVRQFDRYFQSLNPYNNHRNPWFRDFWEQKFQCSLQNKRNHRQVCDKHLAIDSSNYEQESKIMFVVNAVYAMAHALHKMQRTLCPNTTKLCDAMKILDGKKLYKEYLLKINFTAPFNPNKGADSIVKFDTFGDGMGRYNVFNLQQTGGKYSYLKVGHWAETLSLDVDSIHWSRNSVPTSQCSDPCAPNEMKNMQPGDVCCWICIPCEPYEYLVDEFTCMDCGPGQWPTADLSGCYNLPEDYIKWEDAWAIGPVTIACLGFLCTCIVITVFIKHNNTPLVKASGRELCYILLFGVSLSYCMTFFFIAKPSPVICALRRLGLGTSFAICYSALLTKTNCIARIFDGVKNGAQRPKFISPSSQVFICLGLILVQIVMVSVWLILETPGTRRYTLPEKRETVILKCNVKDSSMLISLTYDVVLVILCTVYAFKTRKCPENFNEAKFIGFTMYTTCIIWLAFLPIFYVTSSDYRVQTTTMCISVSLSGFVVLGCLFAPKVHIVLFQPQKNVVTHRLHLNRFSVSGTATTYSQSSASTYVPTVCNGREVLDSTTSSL
Sequence of Metabotropic glutamate receptor 2 (Rattus norvegicus) (P31421 19-872 limits assumed): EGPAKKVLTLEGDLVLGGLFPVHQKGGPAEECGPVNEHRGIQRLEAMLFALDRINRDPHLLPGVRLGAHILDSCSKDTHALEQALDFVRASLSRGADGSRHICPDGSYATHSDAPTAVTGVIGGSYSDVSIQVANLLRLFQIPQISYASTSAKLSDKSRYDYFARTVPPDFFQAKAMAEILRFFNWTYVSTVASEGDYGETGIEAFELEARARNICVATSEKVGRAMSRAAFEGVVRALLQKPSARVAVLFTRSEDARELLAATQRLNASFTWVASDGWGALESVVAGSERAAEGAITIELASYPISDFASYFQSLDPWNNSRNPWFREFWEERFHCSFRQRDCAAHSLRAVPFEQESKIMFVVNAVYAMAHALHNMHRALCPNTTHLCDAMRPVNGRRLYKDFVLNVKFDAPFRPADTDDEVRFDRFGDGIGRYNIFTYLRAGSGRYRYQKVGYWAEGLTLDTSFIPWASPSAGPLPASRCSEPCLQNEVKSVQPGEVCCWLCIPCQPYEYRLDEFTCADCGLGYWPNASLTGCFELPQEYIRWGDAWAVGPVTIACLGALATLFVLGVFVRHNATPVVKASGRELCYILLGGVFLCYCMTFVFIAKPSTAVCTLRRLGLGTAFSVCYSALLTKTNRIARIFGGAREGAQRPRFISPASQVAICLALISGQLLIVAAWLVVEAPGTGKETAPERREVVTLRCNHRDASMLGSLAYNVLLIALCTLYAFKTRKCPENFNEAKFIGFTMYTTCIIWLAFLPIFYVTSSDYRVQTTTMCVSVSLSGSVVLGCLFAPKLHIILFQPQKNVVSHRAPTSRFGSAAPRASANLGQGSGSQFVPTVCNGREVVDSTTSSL
Sequence of Metabotropic glutamate receptor 3 (Rattus norvegicus) (P31422 23-879 limits assumed): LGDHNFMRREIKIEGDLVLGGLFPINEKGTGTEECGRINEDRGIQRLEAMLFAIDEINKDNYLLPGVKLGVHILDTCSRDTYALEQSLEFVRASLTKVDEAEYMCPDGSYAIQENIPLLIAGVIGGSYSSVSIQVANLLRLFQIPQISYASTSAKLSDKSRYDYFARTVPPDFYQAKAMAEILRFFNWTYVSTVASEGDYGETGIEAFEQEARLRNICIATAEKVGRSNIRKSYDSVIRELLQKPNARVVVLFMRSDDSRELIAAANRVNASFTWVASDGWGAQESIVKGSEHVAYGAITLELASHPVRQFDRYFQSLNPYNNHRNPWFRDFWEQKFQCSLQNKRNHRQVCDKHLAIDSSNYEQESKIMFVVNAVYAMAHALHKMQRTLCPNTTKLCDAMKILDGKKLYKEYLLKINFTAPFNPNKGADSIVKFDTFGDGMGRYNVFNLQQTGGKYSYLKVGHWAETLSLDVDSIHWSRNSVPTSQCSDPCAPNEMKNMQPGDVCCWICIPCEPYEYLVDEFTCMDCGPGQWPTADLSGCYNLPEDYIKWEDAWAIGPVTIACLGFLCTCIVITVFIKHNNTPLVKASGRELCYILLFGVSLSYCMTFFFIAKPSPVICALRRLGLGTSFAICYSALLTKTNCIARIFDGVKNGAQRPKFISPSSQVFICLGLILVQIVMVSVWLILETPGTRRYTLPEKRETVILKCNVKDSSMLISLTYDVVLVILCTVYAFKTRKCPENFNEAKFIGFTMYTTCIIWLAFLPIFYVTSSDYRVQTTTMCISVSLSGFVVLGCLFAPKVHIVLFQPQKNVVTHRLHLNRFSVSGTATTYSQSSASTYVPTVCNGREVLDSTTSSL
Sequence of Metabotropic glutamate receptor 2 (P31421 whole entry): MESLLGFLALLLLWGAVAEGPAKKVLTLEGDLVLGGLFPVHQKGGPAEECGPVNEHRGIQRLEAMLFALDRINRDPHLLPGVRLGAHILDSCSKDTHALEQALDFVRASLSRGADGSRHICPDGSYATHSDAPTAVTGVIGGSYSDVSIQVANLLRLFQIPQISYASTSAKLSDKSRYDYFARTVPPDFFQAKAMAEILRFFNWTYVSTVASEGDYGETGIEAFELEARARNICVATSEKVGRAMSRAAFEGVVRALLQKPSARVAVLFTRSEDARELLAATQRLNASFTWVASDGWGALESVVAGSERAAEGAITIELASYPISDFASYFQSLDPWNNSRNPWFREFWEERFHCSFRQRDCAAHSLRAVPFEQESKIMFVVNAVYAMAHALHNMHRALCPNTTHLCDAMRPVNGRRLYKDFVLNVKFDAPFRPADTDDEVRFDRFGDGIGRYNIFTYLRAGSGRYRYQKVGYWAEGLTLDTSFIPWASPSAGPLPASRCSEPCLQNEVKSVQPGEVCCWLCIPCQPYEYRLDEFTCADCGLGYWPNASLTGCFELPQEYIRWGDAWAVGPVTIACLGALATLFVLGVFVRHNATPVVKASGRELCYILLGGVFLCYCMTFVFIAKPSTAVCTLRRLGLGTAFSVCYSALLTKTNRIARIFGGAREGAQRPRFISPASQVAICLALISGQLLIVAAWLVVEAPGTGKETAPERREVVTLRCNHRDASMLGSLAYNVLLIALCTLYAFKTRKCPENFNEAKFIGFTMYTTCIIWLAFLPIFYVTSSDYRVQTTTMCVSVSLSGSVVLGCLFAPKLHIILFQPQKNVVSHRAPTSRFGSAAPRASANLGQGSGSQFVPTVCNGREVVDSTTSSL
Sequence of Metabotropic glutamate receptor 3 (Mus musculus) (Q9QYS2 whole entry): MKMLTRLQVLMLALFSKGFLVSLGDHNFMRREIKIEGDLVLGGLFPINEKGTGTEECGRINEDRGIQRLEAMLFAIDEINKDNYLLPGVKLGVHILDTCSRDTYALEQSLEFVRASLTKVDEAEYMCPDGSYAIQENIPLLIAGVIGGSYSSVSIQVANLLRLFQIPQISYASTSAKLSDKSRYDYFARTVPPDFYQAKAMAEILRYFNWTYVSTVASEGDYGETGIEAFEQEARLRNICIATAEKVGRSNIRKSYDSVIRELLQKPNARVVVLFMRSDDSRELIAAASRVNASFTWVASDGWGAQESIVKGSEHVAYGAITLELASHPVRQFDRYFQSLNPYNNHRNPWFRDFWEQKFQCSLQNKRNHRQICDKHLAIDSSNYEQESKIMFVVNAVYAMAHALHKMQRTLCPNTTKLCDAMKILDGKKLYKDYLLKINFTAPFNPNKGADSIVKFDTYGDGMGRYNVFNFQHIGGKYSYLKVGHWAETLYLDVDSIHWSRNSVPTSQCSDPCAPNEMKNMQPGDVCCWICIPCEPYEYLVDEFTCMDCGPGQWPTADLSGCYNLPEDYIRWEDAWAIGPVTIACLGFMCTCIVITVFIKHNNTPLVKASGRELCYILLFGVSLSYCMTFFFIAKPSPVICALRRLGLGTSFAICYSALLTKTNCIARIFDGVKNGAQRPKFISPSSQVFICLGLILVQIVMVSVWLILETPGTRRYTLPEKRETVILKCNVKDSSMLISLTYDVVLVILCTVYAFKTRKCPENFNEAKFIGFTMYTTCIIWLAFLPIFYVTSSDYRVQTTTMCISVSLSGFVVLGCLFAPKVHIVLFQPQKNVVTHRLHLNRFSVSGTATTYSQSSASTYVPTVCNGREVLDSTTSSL

Row | SMILES | Activity [1] | EC50 [2] | Activity [3, 6] [%] | EC50 ([4]; read-out: EC50) [µM] | Activity [1, 6] [%] | EC50 ([2]; read-out: EC50) [µM] | Activity [3] | EC50 [4] | Activity [5]
1 | Cc1c(OC[C@@H](C)COc2ccc3c(c2)C(=O)NC3)ccc(C(=O)CC(C)(C)C)c1O | inactive | Not Active | 50 | > 10 | – | – | – | – | –
2 | Cc1c(OCC(C)COc2cc(C(=O)O)ccc2F)ccc(C(=O)CC(C)(C)C)c1O (single isomer, unassigned) | – | – | – | – | 74 | 3.95 | – | – | –
3 | Cc1c(OC[C@H](C)Oc2ccc(F)c(C(=O)O)c2)ccc(C(=O)CC(C)(C)C)c1O | – | – | 122 | 0.142 | 105 | 1.1 | – | – | –
4 | COc1cc(C(=O)O)ccc1OC[C@H](C)COc1ccc(C(=O)CC(C)(C)C)c(O)c1C | – | – | 110 | 0.028 | 93 | 0.512 | – | – | –
5 | COc1ccc(OCCCCOc2ccc(C(=O)CC(C)(C)C)c(O)c2C)cc1C(=O)O | – | – | 116 | 0.013 | 99 | 0.49 | – | – | –
6 | COc1cc(OCCCCOc2ccc(C(=O)CC(C)(C)C)c(O)c2C)cc(C(=O)O)c1 | – | – | 116 | 0.102 | 102 | 0.703 | – | – | –
7 | COc1ccc(C(=O)O)cc1O[C@H](C)COc1ccc(C(=O)CC(C)(C)C)c(O)c1C | – | – | – | – | 111 | 1.85 | – | – | –
8 | Cc1c(OC[C@@H](C)COc2ccc(C(=O)O)c(Cl)c2)ccc(C(=O)CC(C)(C)C)c1O | – | – | 107 | 0.05 | 93 | 0.86 | – | – | –
9 | Cc1ccc(C(=O)O)cc1OCCCCOc1ccc(C(=O)CC(C)(C)C)c(O)c1C | – | – | 120 | 0.512 | 144 | 0.892 | – | – | –
10 | Cc1ccc(OCCCCOc2ccc(C(=O)CC(C)(C)C)c(O)c2C)cc1C(=O)O | – | – | 90 | 0.21 | 88 | 0.309 | – | – | –
11 | Cc1cc(C(=O)O)ccc1OC[C@H](C)COc1ccc(C(=O)CC(C)(C)C)c(O)c1C | – | – | 113 | 0.446 | 97 | 1.52 | – | – | –
12 | COc1ccc(C(=O)O)cc1OC[C@H](C)Oc1ccc(C(=O)CC(C)(C)C)c(O)c1C | – | – | – | – | 71 | 3.82 | – | – | –
13 | COc1ccc(OCCCCOc2ccc(C(=O)CC(C)(C)C)c(O)c2C)cc1 | inactive | Not Active | 103 | > 10 | – | – | – | – | –
14 | Cc1c(OC[C@@H](C)COc2ccc(Cl)c(C(=O)O)c2)ccc(C(=O)CC(C)(C)C)c1O | – | – | 120 | 0.377 | 73 | 2.2 | – | – | –
15 | Cc1ccc(OC[C@H](C)COc2ccc(C(=O)CC(C)(C)C)c(O)c2C)cc1C(=O)O | – | – | – | – | 48 | > 10 | – | – | –
16 | Cc1c(O[C@H](C)COc2ccc(F)c(C(=O)O)c2)ccc(C(=O)CC(C)(C)C)c1O | – | – | 118 | 0.083 | 79 | 2.41 | – | – | –
17 | COc1ccc(C(=O)O)cc1OC[C@@H](C)COc1ccc(C(=O)CC(C)(C)C)c(O)c1C | – | – | – | – | 120 | 1.04 | – | – | –
18 | Cc1c(OCCCCOc2ccc(F)c(C(=O)N(C)C)c2)ccc(C(=O)CC(C)(C)C)c1O | inactive | Not Active | 60 | 3.81 | – | – | – | – | –
19 | Cc1c(OCCCCOc2cncc(C(=O)O)c2)ccc(C(=O)CC(C)(C)C)c1O | – | – | 120 | 0.49 | 91 | 0.18 | – | – | –
20 | Cc1c(OC[C@@H](C)COc2ccc(F)c(C(=O)O)c2)ccc(C(=O)CC(C)(C)C)c1O | – | – | 99 | 0.112 | 92 | 1.18 | – | – | –
21 | Cc1c(OCCCCOc2ccc(C(=O)O)c(F)c2)ccc(C(=O)CC(C)(C)C)c1O | – | – | 108 | 0.08 | 107 | 1.11 | – | – | –

Row | SMILES | Activity [1] | EC50 [2] | Activity [3, 6] [%] | EC50 ([4]; read-out: EC50) [µM] | Activity [1, 6] [%] | EC50 ([2]; read-out: EC50) [µM] | Activity [3] | EC50 [4] | Activity [5]
22 | Cc1c(OC[C@H](C)COc2ccc(F)c(C(=O)O)c2)ccc(C(=O)CC(C)(C)C)c1O | – | – | 114 | 0.294 | 87 | 0.651 | – | – | –
23 | Cc1cc(OC[C@H](C)COc2ccc(C(=O)CC(C)(C)C)c(O)c2C)ccc1C(=O)O | – | – | 91 | 0.305 | 80 | 1.35 | – | – | –
24 | COc1ccccc1OCC(C)COc1ccc(C(=O)CC(C)(C)C)c(O)c1C (single isomer, unassigned) | inactive | Not Active | – | – | – | – | inactive | Not Active | –
25 | COc1ccc(C(=O)N(C)C)cc1OCC(C)COc1ccc(C(=O)CC(C)(C)C)c(O)c1C (single isomer, unassigned) | inactive | Not Active | 82 | 5.06 | – | – | – | – | –
26 | CNC(=O)c1cc(OCCCCOc2ccc(C(=O)CC(C)(C)C)c(O)c2C)ccc1F | – | – | 110 | 0.164 | 103 | 0.476 | – | – | Active
27 | Cc1c(OCC(C)COc2ccc(C(=O)O)cc2Cl)ccc(C(=O)CC(C)(C)C)c1O (single isomer, unassigned) | – | – | 97 | 0.477 | 98 | 1.65 | – | – | –
28 | Cc1c(OCCCCOc2ccc(F)c(C(N)=O)c2)ccc(C(=O)CC(C)(C)C)c1O | inactive | Not Active | 107 | > 10 | – | – | – | – | –
29 | Cc1c(OCCCCOc2ccc(C(=O)O)cc2F)ccc(C(=O)CC(C)(C)C)c1O | – | – | 114 | 0.075 | 98 | 1.23 | – | – | –
30 | COc1cc(OC[C@H](C)COc2ccc(C(=O)CC(C)(C)C)c(O)c2C)ccc1C(=O)O | – | – | 94 | 0.194 | 88 | 1.46 | – | – | –
31 | Cc1c(OC[C@@H](C)COc2ccc(C(=O)O)c(F)c2)ccc(C(=O)CC(C)(C)C)c1O | – | – | 94 | 0.261 | 86 | 1.09 | – | – | –
32 | COc1cccc(OC[C@H](C)COc2ccc(C(=O)CC(C)(C)C)c(O)c2C)c1 | inactive | Not Active | – | – | – | – | inactive | Not Active | –
33 | COC(=O)c1cc(OCCCCOc2ccc(C(=O)CC(C)(C)C)c(O)c2C)ccc1F | inactive | Not Active | – | – | – | – | – | – | –
34 | Cc1c(OCCCCOc2ccc(Cl)c(C(=O)O)c2)ccc(C(=O)CC(C)(C)C)c1O | – | – | 112 | 0.087 | 87 | 0.13 | – | – | –
35 | Cc1c(OCC(C)COc2ccc(C(=O)O)cc2F)ccc(C(=O)CC(C)(C)C)c1O (single isomer, unassigned) | – | – | 98 | 0.222 | 87 | 1.3 | – | – | –
36 | COc1ccc(C(=O)O)cc1OC[C@H](C)COc1ccc(C(=O)CC(C)(C)C)c(O)c1C | – | – | 98 | 0.063 | 111 | 0.384 | – | – | Active
37 | Cc1c(O[C@@H](C)COc2ccc(F)c(C(=O)O)c2)ccc(C(=O)CC(C)(C)C)c1O | – | – | 114 | 0.257 | 89 | 1.12 | – | – | –
38 | Cc1ncc(OCCCCOc2ccc(C(=O)CC(C)(C)C)c(O)c2C)cc1C(=O)O | – | – | 116 | 0.028 | 103 | 0.079 | – | – | –
39 | Cc1c(OC[C@@H](C)Oc2ccc(F)c(C(=O)O)c2)ccc(C(=O)CC(C)(C)C)c1O | – | – | 125 | 0.112 | 117 | 1.21 | – | – | –
40 | COc1ccc(C(=O)O)cc1O[C@@H](C)COc1ccc(C(=O)CC(C)(C)C)c(O)c1C | – | – | 117 | 0.137 | 91 | 2.21 | – | – | –
41 | COc1ccc(C(=O)O)cc1OC[C@@H](C)Oc1ccc(C(=O)CC(C)(C)C)c(O)c1C | – | – | 114 | 0.078 | 97 | 0.806 | – | – | –
